Results as given in publication PMC11347070 (Current Research in Toxicology, 2024).

Key:
[1] = system: zebrafish embryos and larvae; settings: exposed to 500 µM ECA; 120 hpf
[2] = ref FDA, KEPPRA® (levetiracetam), n.d.; cited from earlier work
[3] = system: zebrafish embryos and larvae; test: Zebrafish embryo developmental toxicity assay; settings: for BA heart / Coagulation/dead / Curved fin left / Curved fin right / Curved tail / Edema head / Edema pericard / Edema yolk / No hatching / Tissue deviation tail / Tot. malformed (excl. dead) / Tot. malformed (incl. dead) / Deviation eye / Elbow tail: 120 hpf

CCC(C(=O)O)N1CCCC1=O (stereo not drawn) [ECA, etiracetam carboxylic acid]
concentration of ECA in larvae [1]: no concentrations above the LOD could be detected
uptake of ECA [1]: no uptake of ECA could be observed
human metabolite of LTC, share of the administered dose [2]: 24 % of the administered dose
BA heart ([3]; ECA 1 µM, replicate 1): 0/20
Coagulation/dead ([3]; ECA 1 µM, replicate 1): 0/20
Curved fin left ([3]; ECA 1 µM, replicate 1): 0/20
Curved fin right ([3]; ECA 1 µM, replicate 1): 0/20
Curved tail ([3]; ECA 1 µM, replicate 1): 0/20
Edema head ([3]; ECA 1 µM, replicate 1): 0/20
Edema pericard ([3]; ECA 1 µM, replicate 1): 0/20
Edema yolk ([3]; ECA 1 µM, replicate 1): 0/20
No hatching ([3]; ECA 1 µM, replicate 1): 0/20
Tissue deviation tail ([3]; ECA 1 µM, replicate 1): 0/20
Tot. malformed (excl. dead) ([3]; ECA 1 µM, replicate 1): 0/20
Tot. malformed (incl. dead) ([3]; ECA 1 µM, replicate 1): 0/20
BA heart ([3]; ECA 1 µM, replicate 2): 0/19
Coagulation/dead ([3]; ECA 1 µM, replicate 2): 1/20
Curved fin left ([3]; ECA 1 µM, replicate 2): 0/19
Curved fin right ([3]; ECA 1 µM, replicate 2): 0/19
Curved tail ([3]; ECA 1 µM, replicate 2): 0/19
Edema head ([3]; ECA 1 µM, replicate 2): 0/19
Edema pericard ([3]; ECA 1 µM, replicate 2): 0/19
Edema yolk ([3]; ECA 1 µM, replicate 2): 0/19
No hatching ([3]; ECA 1 µM, replicate 2): 0/19
Tissue deviation tail ([3]; ECA 1 µM, replicate 2): 0/19
Tot. malformed (excl. dead) ([3]; ECA 1 µM, replicate 2): 0/19
Tot. malformed (incl. dead) ([3]; ECA 1 µM, replicate 2): 1/20
BA heart ([3]; ECA 10 µM, replicate 1): 0/18
Coagulation/dead ([3]; ECA 10 µM, replicate 1): 2/20
Curved fin left ([3]; ECA 10 µM, replicate 1): 0/18
Curved fin right ([3]; ECA 10 µM, replicate 1): 0/18
Curved tail ([3]; ECA 10 µM, replicate 1): 2/18
Edema head ([3]; ECA 10 µM, replicate 1): 0/18
Edema pericard ([3]; ECA 10 µM, replicate 1): 0/18
Edema yolk ([3]; ECA 10 µM, replicate 1): 0/18
No hatching ([3]; ECA 10 µM, replicate 1): 1/18
Tissue deviation tail ([3]; ECA 10 µM, replicate 1): 0/18
Tot. malformed (excl. dead) ([3]; ECA 10 µM, replicate 1): 2/18
Tot. malformed (incl. dead) ([3]; ECA 10 µM, replicate 1): 4/20
BA heart ([3]; ECA 10 µM, replicate 2): 0/20
Coagulation/dead ([3]; ECA 10 µM, replicate 2): 0/20
Curved fin left ([3]; ECA 10 µM, replicate 2): 0/20
Curved fin right ([3]; ECA 10 µM, replicate 2): 0/20
Curved tail ([3]; ECA 10 µM, replicate 2): 1/20
Edema head ([3]; ECA 10 µM, replicate 2): 0/20
Edema pericard ([3]; ECA 10 µM, replicate 2): 0/20
Edema yolk ([3]; ECA 10 µM, replicate 2): 0/20
No hatching ([3]; ECA 10 µM, replicate 2): 0/20
Tissue deviation tail ([3]; ECA 10 µM, replicate 2): 0/20
Tot. malformed (excl. dead) ([3]; ECA 10 µM, replicate 2): 1/20
Tot. malformed (incl. dead) ([3]; ECA 10 µM, replicate 2): 1/20
BA heart ([3]; ECA 100 µM, replicate 1): 0/18
Coagulation/dead ([3]; ECA 100 µM, replicate 1): 2/20
Curved fin left ([3]; ECA 100 µM, replicate 1): 0/18
Curved fin right ([3]; ECA 100 µM, replicate 1): 0/18
Curved tail ([3]; ECA 100 µM, replicate 1): 0/18
Edema head ([3]; ECA 100 µM, replicate 1): 0/18
Edema pericard ([3]; ECA 100 µM, replicate 1): 1/18
Edema yolk ([3]; ECA 100 µM, replicate 1): 0/18
No hatching ([3]; ECA 100 µM, replicate 1): 0/18
Tissue deviation tail ([3]; ECA 100 µM, replicate 1): 1/18
Tot. malformed (excl. dead) ([3]; ECA 100 µM, replicate 1): 1/18
Tot. malformed (incl. dead) ([3]; ECA 100 µM, replicate 1): 3/20
BA heart ([3]; ECA 100 µM, replicate 2): 1/20
Coagulation/dead ([3]; ECA 100 µM, replicate 2): 0/20
Curved fin left ([3]; ECA 100 µM, replicate 2): 1/20
Curved fin right ([3]; ECA 100 µM, replicate 2): 1/20
Curved tail ([3]; ECA 100 µM, replicate 2): 1/20
Edema head ([3]; ECA 100 µM, replicate 2): 1/20
Edema pericard ([3]; ECA 100 µM, replicate 2): 2/20
Edema yolk ([3]; ECA 100 µM, replicate 2): 1/20
No hatching ([3]; ECA 100 µM, replicate 2): 0/20
Tissue deviation tail ([3]; ECA 100 µM, replicate 2): 1/20
Tot. malformed (excl. dead) ([3]; ECA 100 µM, replicate 2): 2/20
Tot. malformed (incl. dead) ([3]; ECA 100 µM, replicate 2): 2/20
Coagulation/dead ([3]; ECA 250 µM, replicate 1): 0/20
Curved tail ([3]; ECA 250 µM, replicate 1): 0/20
Deviation eye ([3]; ECA 250 µM, replicate 1): 0/20
Elbow tail ([3]; ECA 250 µM, replicate 1): 1/20
Tissue deviation tail ([3]; ECA 250 µM, replicate 1): 1/20
Tot. malformed (excl. dead) ([3]; ECA 250 µM, replicate 1): 2/20
Tot. malformed (incl. dead) ([3]; ECA 250 µM, replicate 1): 2/20
Coagulation/dead ([3]; ECA 250 µM, replicate 2): 0/20
Curved tail ([3]; ECA 250 µM, replicate 2): 0/20
Deviation eye ([3]; ECA 250 µM, replicate 2): 0/20
Elbow tail ([3]; ECA 250 µM, replicate 2): 0/20
Tissue deviation tail ([3]; ECA 250 µM, replicate 2): 0/20
Tot. malformed (excl. dead) ([3]; ECA 250 µM, replicate 2): 0/20
Tot. malformed (incl. dead) ([3]; ECA 250 µM, replicate 2): 0/20
Coagulation/dead ([3]; ECA 500 µM, replicate 1): 0/20
Curved tail ([3]; ECA 500 µM, replicate 1): 1/20
Deviation eye ([3]; ECA 500 µM, replicate 1): 1/20
Elbow tail ([3]; ECA 500 µM, replicate 1): 0/20
Tissue deviation tail ([3]; ECA 500 µM, replicate 1): 1/20
Tot. malformed (excl. dead) ([3]; ECA 500 µM, replicate 1): 2/20
Tot. malformed (incl. dead) ([3]; ECA 500 µM, replicate 1): 2/20
Coagulation/dead ([3]; ECA 500 µM, replicate 2): 0/20
Curved tail ([3]; ECA 500 µM, replicate 2): 0/20
Deviation eye ([3]; ECA 500 µM, replicate 2): 0/20
Elbow tail ([3]; ECA 500 µM, replicate 2): 0/20
Tissue deviation tail ([3]; ECA 500 µM, replicate 2): 1/20
Tot. malformed (excl. dead) ([3]; ECA 500 µM, replicate 2): 1/20
Tot. malformed (incl. dead) ([3]; ECA 500 µM, replicate 2): 1/20
differences between test groups and embryo medium control group ([3]; all test concentrations, 24 to 120 hpf, Fisher Exact test): no statistically significant differences
teratogenicity in zebrafish larvae ([3]; concentrations up to 10,000 µM LTC and 500 µM ECA, likely due to limited uptake or lack of uptake): non-teratogenic
